According to the supplement of paper PMC4862054:

Assays:
Experiment in all cases: normalised viability (% of control), CellTiter-Blue; higher = more viable cells (about 100 = DMSO control)
Details in all cases: incubation time: 72 h
HCC1143 [1] = test system: HCC1143
Outline: (§1)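 384-well plates were pre-loaded with compound in 5 µl medium before 20 µl of breast cancer cell suspension was seeded. Following 72 h incubation, 2.5 µl CellTiter-Blue reagent was added for 2 h at 37 °C. Fluorescence was read at 560/590 nm and plates were normalised to vehicle (100) and a positive kill control (0), checked by Z'-factor. Normalised viability is reported at a single listed concentration of the series.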

MDA-MB-453 [2] = test system: MDA-MB-453
Outline: as §1

SK-BR-3 [3] = test system: SK-BR-3
Outline: as §1

BT-474 [4] = test system: BT-474
Outline: as §1

DU-4475 [5] = test system: DU-4475
Outline: as §1

MDA-MB-468 [6] = test system: MDA-MB-468
Outline: as §1

CAL-148 [7] = test system: CAL-148
Outline: as §1

CAL-51 [8] = test system: CAL-51
Outline: as §1

MFM-223 [9] = test system: MFM-223
Outline: as §1

MDA-MB-231 [10] = test system: MDA-MB-231
Outline: as §1

HCC1599 [11] = test system: HCC1599
Outline: as §1

HCC1937 [12] = test system: HCC1937
Outline: as §1

HCC1143 [13] = test system: HCC1143; remark: listed apart in the source
Experimental: (§2)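 DSRT, CellTiter-Blue viability, 72 h incubation. Signal is normalised to DMSO and benzethonium chloride controls. Value is the normalised response at dose 3.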

MDA-MB-436 = test system: MDA-MB-436
Experimental: as §2

Hs578T = test system: Hs578T
Experimental: as §2

MDA-MB-453 [14] = test system: MDA-MB-453; remark: listed apart in the source
Experimental: as §2

SK-BR-3 [15] = test system: SK-BR-3; remark: listed apart in the source
Experimental: as §2

HDQ-P1 = test system: HDQ-P1
Experimental: as §2

BT-474 [16] = test system: BT-474; remark: listed apart in the source
Experimental: as §2

DU-4475 [17] = test system: DU-4475; remark: listed apart in the source
Experimental: as §2

CAL-85-1 = test system: CAL-85-1
Experimental: as §2

MDA-MB-468 [18] = test system: MDA-MB-468; remark: listed apart in the source
Experimental: as §2

CAL-148 [19] = test system: CAL-148; remark: listed apart in the source
Experimental: as §2

BT-549 = test system: BT-549
Experimental: as §2

CAL-51 [20] = test system: CAL-51; remark: listed apart in the source
Experimental: as §2

CAL-120 = test system: CAL-120
Experimental: as §2

MFM-223 [21] = test system: MFM-223; remark: listed apart in the source
Experimental: as §2

MDA-MB-231 [22] = test system: MDA-MB-231; remark: listed apart in the source
Experimental: as §2

HCC1599 [23] = test system: HCC1599; remark: listed apart in the source
Experimental: as §2

HCC1937 [24] = test system: HCC1937; remark: listed apart in the source
Experimental: as §2

CC(O)(CS(=O)(=O)c1ccc(F)cc1)C(=O)Nc1ccc(C#N)c(C(F)(F)F)c1 (stereo not drawn) [Bicalutamide]
Details | normalised viability [%]
BT-474 [4], 10 nM | 119
BT-474 [4], 1000 nM | 109
BT-474 [4], 10000 nM | 138
BT-474 [16], 100 nM | 115
BT-549, 100 nM | 84.5
CAL-51 [8], 3 nM | 116
CAL-51 [8], 30 nM | 109
CAL-51 [8], 100 nM | 99.1
CAL-51 [20], 10 nM | 105
CAL-85-1, 10 nM | 110
CAL-120, 100 nM | 97.2
CAL-148 [7], 3 nM | 101
CAL-148 [7], 30 nM | 100
CAL-148 [7], 100 nM | 102
CAL-148 [19], 10 nM | 109
DU-4475 [5], 3 nM | 92.2
DU-4475 [5], 30 nM | 88.8
DU-4475 [5], 100 nM | 99.1
DU-4475 [17], 10 nM | 103
HCC1143 [1], 10 nM | 94.8
HCC1143 [1], 1000 nM | 105
HCC1143 [1], 10000 nM | 92.7
HCC1143 [13], 100 nM | 99.8
HCC1599 [11], 10 nM | 98.3
HCC1599 [11], 1000 nM | 93.6
HCC1599 [11], 10000 nM | 109
HCC1599 [23], 100 nM | 83.7
HCC1937 [12], 10 nM | 101
HCC1937 [12], 1000 nM | 107
HCC1937 [12], 10000 nM | 78.5
HCC1937 [24], 100 nM | 83
HDQ-P1, 10 nM | 121
Hs578T, 100 nM | 93.6
MDA-MB-231 [10], 10 nM | 103
MDA-MB-231 [10], 1000 nM | 122
MDA-MB-231 [10], 10000 nM | 122
MDA-MB-231 [22], 100 nM | 105
MDA-MB-436, 100 nM | 98.7
MDA-MB-453 [2], 3 nM | 114
MDA-MB-453 [2], 30 nM | 89.2
MDA-MB-453 [2], 100 nM | 95.9
MDA-MB-453 [14], 10 nM | 101
MDA-MB-468 [6], 10 nM | 118
MDA-MB-468 [6], 1000 nM | 93.9
MDA-MB-468 [6], 10000 nM | 91.3
MDA-MB-468 [18], 100 nM | 94.6
MFM-223 [9], 10 nM | 89.2
MFM-223 [9], 1000 nM | 91.8
MFM-223 [9], 10000 nM | 94
MFM-223 [21], 100 nM | 87
SK-BR-3 [3], 10 nM | 104
SK-BR-3 [3], 1000 nM | 107
SK-BR-3 [3], 10000 nM | 114
SK-BR-3 [15], 100 nM | 94.1

Nc1ccn([C@@H]2O[C@H](CO)[C@@H](O)C2(F)F)c(=O)n1 [Gemcitabine]
Details | normalised viability [%]
BT-474 [4], 1 nM | 119
BT-474 [4], 100 nM | 103
BT-474 [4], 1000 nM | 101
BT-474 [16], 10 nM | 101
BT-549, 10 nM | 84
CAL-51 [8], 0.3 nM | 102
CAL-51 [8], 3 nM | 98
CAL-51 [8], 10 nM | 83.2
CAL-51 [20], 1 nM | 105
CAL-85-1, 1 nM | 93.2
CAL-120, 10 nM | 67.3
CAL-148 [7], 0.3 nM | 102
CAL-148 [7], 3 nM | 92.1
CAL-148 [7], 10 nM | 65.2
CAL-148 [19], 1 nM | 106
DU-4475 [5], 0.3 nM | 95.1
DU-4475 [5], 3 nM | 88.3
DU-4475 [5], 10 nM | 98.2
DU-4475 [17], 1 nM | 116
HCC1143 [1], 1 nM | 101
HCC1143 [1], 100 nM | 49.7
HCC1143 [1], 1000 nM | 45.8
HCC1143 [13], 10 nM | 70.7
HCC1599 [11], 1 nM | 99.4
HCC1599 [11], 100 nM | 65.9
HCC1599 [11], 1000 nM | 25.4
HCC1599 [23], 10 nM | 88.8
HCC1937 [12], 1 nM | 92.3
HCC1937 [12], 100 nM | 38.8
HCC1937 [12], 1000 nM | 27.9
HCC1937 [24], 10 nM | 63.7
HDQ-P1, 1 nM | 125
Hs578T, 10 nM | 82.1
MDA-MB-231 [10], 1 nM | 97.9
MDA-MB-231 [10], 100 nM | 72.1
MDA-MB-231 [10], 1000 nM | 72.2
MDA-MB-231 [22], 10 nM | 77.9
MDA-MB-436, 10 nM | 94.3
MDA-MB-453 [2], 0.3 nM | 114
MDA-MB-453 [2], 3 nM | 91.7
MDA-MB-453 [2], 10 nM | 97.9
MDA-MB-453 [14], 1 nM | 111
MDA-MB-468 [6], 1 nM | 104
MDA-MB-468 [6], 100 nM | 35.5
MDA-MB-468 [6], 1000 nM | 24.6
MDA-MB-468 [18], 10 nM | 68.9
MFM-223 [9], 1 nM | 99.7
MFM-223 [9], 100 nM | 95.6
MFM-223 [9], 1000 nM | 34.9
MFM-223 [21], 10 nM | 92.6
SK-BR-3 [3], 1 nM | 108
SK-BR-3 [3], 100 nM | 47
SK-BR-3 [3], 1000 nM | 40.9
SK-BR-3 [15], 10 nM | 77.4
